Values quoted from earlier work, collected in patent US20180028451A1, “IMMEADIATE RELEASE ORAL TABLET” (Boehringer Ingelheim International GmbH, priority 2015, published 2018).

Conditions: physiological pH range of the gastro-intestinal tract between pH 1 to 7

## CCCc1nc2c(C)cc(-c3nc4ccccc4n3C)cc2n1Cc1ccc(-c2ccccc2C(=O)O)cc1 [Telmisartan, 4′-[2-n-propyl-4-methyl-6-(1-methylbenzimidazol-2-yl)-benzimidazol-1-ylmethyl]-biphenyl-2-carboxylic acid]
  solubility in aqueous systems: very poor solubility
